Results reported in patent US9138003B2, “Phosphonates and derivatives thereof as enhancers of the activity of insecticides” (Syngenta Crop Protection Inc., priority 2002, dated 2015).
Where “and” joins values, the source holds several entries; their conditions need not be identical. Equal values may be shown once.

How the values were obtained:
Format in all cases: in vivo
[1] = system: L1/L2 Liriomyza huidobriensis, leaf miner; assay: curative control of L1/L2 leaf miner within bean leaves; conditions: for % control, Alone: no BEEP; for % control, +BEEP: with 0.5% BEEP
Excerpt: The activity of a range of insecticides combined with 0.5% bis(2-ethylhexyl)-2-ethylhexyl phosphonate (BEEP) was compared with a corresponding formulation containing no bis(2-ethylhexyl)-2-ethylhexyl phosphonate in a test of curative control of L1/L2 Liriomyza huidobriensis, leaf miner. The results are set out in Table 1 and show % control of this leaf miner within bean leaves.

Plutella xylostella = assay: feeding/contact test against Plutella xylostella; conditions: for % control, Alone: no BEEP; for % control, +BEEP: with 0.5% BEEP
Excerpt: The activity of lambda-cyhalothrin, profenofos and indoxacarb combined with 0.5% bis(2-ethylhexyl)-2-ethylhexyl phosphonate (BEEP) was compared with a corresponding formulation containing no bis(2-ethylhexyl)-2-ethylhexyl phosphonate in a feeding/contact test against Plutella xylostella. The results are set out in Table 2 and show % control.

R2 Myzus persicae = assay: translaminar test (3 day assessment time) against R2 Myzus persicae; conditions: 0.5% BEEP, no insecticide
Excerpt: The activity of lambda-cyhalothrin, as Karate 10CS with 0.5% bis(2-ethylhexyl)-2-ethylhexyl phosphonate (BEEP) was compared with a Karate 10CS containing no bis(2-ethylhexyl)-2-ethylhexyl phosphonate in a translaminar test (3 day assessment time) against R2 Myzus persicae. The results are set out in Table 3 and show % control.

Aphis gossypii = assay: translaminar test (3 day assessment time) against Aphis gossypii; conditions: 0.5% BEOP, no insecticide
Excerpt: The activity of thiamethoxam as Actara 25WG with bis(2-ethylhexyl) octyl phosphonate (BEOP) at 0.5% was compared with Actara containing no bis(2-ethylhexyl) octyl phosphonate in a translaminar test (3 day assessment time) against Aphis gossypii. The results are set out in Table 4 and show % control.

## Abamectin
[1]; 3.13 ppm
  % control, Alone: 27%
  % control, +BEEP: 99%
[1]; 6.25 ppm
  % control, Alone: 48%
  % control, +BEEP: 100%
[1]; 12.5 ppm
  % control, Alone: 74%
  % control, +BEEP: 100%
[1]; 25 ppm
  % control, Alone: 96%
  % control, +BEEP: 100%

## CCCCC(CC)COP(=O)(CC(CC)CCCC)OCC(CC)CCCC (stereo not shown) [BEEP, bis(2-ethylhexyl)-2-ethylhexyl phosphonate]
Plutella xylostella; 0.5% BEEP, no insecticide
  % control, Control +BEEP: 11% and 20%
[1]; 0.5% BEEP, no insecticide
  % control, Control +BEEP: 0%
R2 Myzus persicae
  % control, Control +BEEP: 4%

## CCCSP(=O)(OCC)Oc1ccc(Br)cc1Cl (stereo not shown) [Profenofos]
Plutella xylostella; 12.5 ppm
  % control, Alone: 16%
  % control, +BEEP: 65%
Plutella xylostella; 25 ppm
  % control, Alone: 41%
  % control, +BEEP: 95%
Plutella xylostella; 50 ppm
  % control, Alone: 95%
  % control, +BEEP: 100%
Plutella xylostella; 100 ppm
  % control, Alone: 100%
  % control, +BEEP: 100%

## N#Cc1nn(-c2c(Cl)cc(C(F)(F)F)cc2Cl)c(N)c1[S+]([O-])C(F)(F)F (stereo not shown) [Fipronil]
[1]; 400 ppm
  % control, Alone: 60%
  % control, +BEEP: 100%
[1]; 600 ppm
  % control, Alone: 69%
  % control, +BEEP: 100%
[1]; 800 ppm
  % control, Alone: 66%
  % control, +BEEP: 100%
[1]; 1000 ppm
  % control, Alone: 83%
  % control, +BEEP: 100%

## CN1COCN(Cc2cnc(Cl)s2)/C1=N\[N+](=O)[O-] [thiamethoxam]
[1]; 400 ppm
  % control, Alone: 0%
  % control, +BEEP: 20%
[1]; 600 ppm
  % control, Alone: 0%
  % control, +BEEP: 43%
[1]; 800 ppm
  % control, Alone: 0%
  % control, +BEEP: 63%
[1]; 1000 ppm
  % control, Alone: 12%
  % control, +BEEP: 68%

## CCOCn1c(-c2ccc(Cl)cc2)c(C#N)c(Br)c1C(F)(F)F [chlorfenpyr]
[1]; 400 ppm
  % control, Alone: 0%
  % control, +BEEP: 100%
[1]; 600 ppm
  % control, Alone: 15%
  % control, +BEEP: 100%
[1]; 800 ppm
  % control, Alone: 0%
  % control, +BEEP: 100%
[1]; 1000 ppm
  % control, Alone: 28%
  % control, +BEEP: 100%

## CCCCCCCCP(=O)(OCC(CC)CCCC)OCC(CC)CCCC (stereo not shown) [BEOP, bis(2-ethylhexyl) octyl phosphonate]
Aphis gossypii
  % control, Control +BEOP: 3%

## COC(=O)N(C(=O)N1CO[C@@]2(C(=O)OC)Cc3cc(Cl)ccc3C2=N1)c1ccc(OC(F)(F)F)cc1 [Indoxacarb]
Plutella xylostella; 0.16 ppm
  % control, Alone: 32%
  % control, +BEEP: 57%
Plutella xylostella; 0.31 ppm
  % control, Alone: 26%
  % control, +BEEP: 80%
Plutella xylostella; 0.63 ppm
  % control, Alone: 32%
  % control, +BEEP: 98%
Plutella xylostella; 1.25 ppm
  % control, Alone: 80%
  % control, +BEEP: 100%

## spinosad
[1]; 400 ppm
  % control, Alone: 42%
  % control, +BEEP: 100%
[1]; 600 ppm
  % control, Alone: 73%
  % control, +BEEP: 100%
[1]; 800 ppm
  % control, Alone: 82%
  % control, +BEEP: 100%
[1]; 1000 ppm
  % control, Alone: 81%
  % control, +BEEP: 100%

## CC1(C)[C@H](C(=O)O[C@H](C#N)c2cccc(Oc3ccccc3)c2)[C@@H]1/C=C(\Cl)C(F)(F)F (racemic) [Lambda-cyhalothrin]
Plutella xylostella; 0.31 ppm
  % control, Alone: 54%
  % control, +BEEP: 100%
Plutella xylostella; 0.63 ppm
  % control, Alone: 66%
  % control, +BEEP: 100%
Plutella xylostella; 1.25 ppm
  % control, Alone: 83%
  % control, +BEEP: 100%
Plutella xylostella; 2.5 ppm
  % control, Alone: 95%
  % control, +BEEP: 100%

## Nc1nc(N)nc(NC2CC2)n1 [cypromazine]
[1]; 25 ppm
  % control, Alone: 27%
  % control, +BEEP: 28%
[1]; 50 ppm
  % control, Alone: 57%
  % control, +BEEP: 83%
[1]; 100 ppm
  % control, Alone: 81%
  % control, +BEEP: 100%
[1]; 200 ppm
  % control, Alone: 100%
  % control, +BEEP: 100%
